Results as given in BindingDB's records for patent US10245267 (Novartis, 2019).

The compounds below were run against Serine/threonine-protein kinase B-raf [V600E] (Homo sapiens, UniProt P15056, V600E) (assay: In Vitro Raf Activity).
Sequence of Serine/threonine-protein kinase B-raf [V600E] (P15056 2-766 V600E limits assumed): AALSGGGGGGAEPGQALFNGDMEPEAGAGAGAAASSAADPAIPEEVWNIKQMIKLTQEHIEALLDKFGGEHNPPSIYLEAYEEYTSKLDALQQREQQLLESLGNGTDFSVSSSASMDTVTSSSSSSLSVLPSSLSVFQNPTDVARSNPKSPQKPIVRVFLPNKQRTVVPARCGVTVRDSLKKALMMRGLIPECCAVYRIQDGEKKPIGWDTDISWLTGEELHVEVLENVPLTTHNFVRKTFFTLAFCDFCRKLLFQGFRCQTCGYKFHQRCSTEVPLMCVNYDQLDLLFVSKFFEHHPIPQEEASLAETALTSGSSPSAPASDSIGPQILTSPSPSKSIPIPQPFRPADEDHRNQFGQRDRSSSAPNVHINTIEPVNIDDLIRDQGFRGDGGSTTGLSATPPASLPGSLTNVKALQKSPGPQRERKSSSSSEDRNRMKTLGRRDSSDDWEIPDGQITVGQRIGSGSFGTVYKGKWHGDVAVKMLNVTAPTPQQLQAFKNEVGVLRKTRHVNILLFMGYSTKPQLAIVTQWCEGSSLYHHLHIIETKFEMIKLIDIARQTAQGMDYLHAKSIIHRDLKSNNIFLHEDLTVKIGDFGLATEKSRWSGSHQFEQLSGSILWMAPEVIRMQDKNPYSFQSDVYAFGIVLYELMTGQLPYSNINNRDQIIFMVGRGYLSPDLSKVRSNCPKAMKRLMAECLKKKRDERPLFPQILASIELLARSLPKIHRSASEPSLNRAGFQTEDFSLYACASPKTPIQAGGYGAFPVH

Row | IC50 [nM] | SMILES
1 | 4.8 | Cc1ncc(NC(=O)c2ccnc(C(C)(C)C#N)c2)cc1-c1cc(N2CCOCC2)ncn1 [US10245267, Example 2]
2 | 300 | Cc1ncc(NC(=O)c2ccnc(C(F)(F)F)c2)cc1-c1cnc(OC2CNC2)c(N2CCOCC2)c1 [US10245267, Example 325]
3 | 3.7 | Cc1ncc(NC(=O)c2ccnc(C(F)(F)F)c2)cc1-c1cnc(C(C)(C)C#N)c(N2CCOCC2)c1 [US10245267, Example 326]
4 | 3.9 | Cc1ncc(NC(=O)c2ccnc(C(F)(F)F)c2)cc1-c1cnc(CS(C)(=O)=O)c(N2CCOCC2)c1 [US10245267, Example 327]
5 | 3.5 | CCOc1nnc(-c2cc(NC(=O)c3ccc(CN(C)CC)c(C(F)(F)F)c3)ccc2C)cc1N1CCOCC1 [US10245267, Example 576]
6 | 6.5 | Cc1ncc(NC(=O)c2ccc(C#N)c(C(F)(F)F)c2)cc1-c1cc(N2CCOCC2)c2nccn2n1 [US10245267, Example 877]
7 | 3.2 | Cc1ncc(NC(=O)c2cccc(C(F)F)c2)cc1-c1cc(N2CCOCC2)c2nccn2n1 [US10245267, Example 880]
8 | 32.6 | Cc1ncc(NC(=O)c2ccnc(C(C)(C)C#N)c2)cc1-c1cc(N2CCOCC2)c2nccn2n1 [US10245267, Example 881]
